In paper PMC10227065, “Structures of Tetrahymena thermophila respiratory megacomplexes on the tubular mitochondrial cristae” (Nature Communications, 2023):

Legend:
[1] = molecular target: T1, Tt-CII (SDHA/SDHB hydrophilic head) (Tetrahymena thermophila, UniProt Q23DI3); assay: cryo-EM structure; type: binding
T1 construct: gene TTHERM_00047080

[2] = molecular target: T1, Tt-CII (SDHA/SDHB hydrophilic head); assay: cyt c reduction/oxidation, […] nm; type: biochemical; conditions: 5 mM malonate; 5 mM succinate, 50 uM decylubiquinone, 100 uM Tt-cyt c, 10 nM megacomplex, pH 7.4, 0.1% digitonin, room temperature
NDUA9 (Tt-CI subunit) = molecular target: T2, NDUA9 (Tt-CI subunit) (Tetrahymena thermophila, UniProt I7MLH2); assay: cryo-EM structure; type: binding; conditions: printed only as NDP group (PDB ligand code)
T2 construct: gene TTHERM_00557760
T2 sequence (I7MLH2 27-362): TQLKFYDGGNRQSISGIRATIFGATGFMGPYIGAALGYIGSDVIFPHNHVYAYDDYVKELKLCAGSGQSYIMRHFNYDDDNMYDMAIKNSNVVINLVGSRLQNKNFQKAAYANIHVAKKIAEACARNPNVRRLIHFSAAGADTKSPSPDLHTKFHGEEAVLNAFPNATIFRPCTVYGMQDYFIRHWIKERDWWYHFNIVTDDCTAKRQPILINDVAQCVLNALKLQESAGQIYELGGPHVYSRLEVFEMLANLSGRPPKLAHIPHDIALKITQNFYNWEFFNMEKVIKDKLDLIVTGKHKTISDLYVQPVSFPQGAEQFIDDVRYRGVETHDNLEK
Description: cryo-EM structure on NDUA9 (Tt-CI subunit) | NDP group of NDUA9 and the interfacial heme […]1

T1 sequence (Q23DI3 1-636): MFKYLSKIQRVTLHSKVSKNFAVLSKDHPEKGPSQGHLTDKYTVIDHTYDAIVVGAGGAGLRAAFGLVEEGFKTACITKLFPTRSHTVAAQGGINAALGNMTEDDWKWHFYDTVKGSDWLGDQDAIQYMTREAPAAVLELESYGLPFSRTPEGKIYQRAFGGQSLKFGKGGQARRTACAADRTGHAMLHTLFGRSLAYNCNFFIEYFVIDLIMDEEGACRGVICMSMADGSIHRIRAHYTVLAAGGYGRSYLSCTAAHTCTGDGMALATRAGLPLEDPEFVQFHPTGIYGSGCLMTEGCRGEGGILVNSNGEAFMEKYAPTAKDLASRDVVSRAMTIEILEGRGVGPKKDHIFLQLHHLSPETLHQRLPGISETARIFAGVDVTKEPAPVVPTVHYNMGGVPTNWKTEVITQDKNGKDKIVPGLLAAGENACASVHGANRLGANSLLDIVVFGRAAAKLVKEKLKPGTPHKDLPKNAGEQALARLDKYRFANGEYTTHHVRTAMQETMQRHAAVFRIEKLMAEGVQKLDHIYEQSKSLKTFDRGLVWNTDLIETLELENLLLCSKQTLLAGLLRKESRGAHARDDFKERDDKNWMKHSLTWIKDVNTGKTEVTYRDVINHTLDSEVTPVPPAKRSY
T1 sequence (I7M403 21-312 partner): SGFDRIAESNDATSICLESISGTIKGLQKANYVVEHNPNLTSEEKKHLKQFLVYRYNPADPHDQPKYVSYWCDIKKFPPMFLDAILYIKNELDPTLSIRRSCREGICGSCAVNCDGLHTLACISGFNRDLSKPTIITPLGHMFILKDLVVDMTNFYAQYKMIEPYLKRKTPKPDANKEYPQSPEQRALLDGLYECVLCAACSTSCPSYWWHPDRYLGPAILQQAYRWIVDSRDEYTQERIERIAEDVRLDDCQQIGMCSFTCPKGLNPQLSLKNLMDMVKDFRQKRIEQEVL

**Q.** For `Cc1cc2nc3c(=O)[nH]c(=O)nc-3n(C[C@H](O)[C@H](O)[C@H](O)COP(=O)(O)OP(=O)(O)OC[C@H]3O[C@@H](n4cnc5c(N)ncnc54)[C@H](O)[C@@H]3O)c2cc1C` [FAD], which cryo-EM structure [1] is on record?
**A.** highly conserved to known CII structures with the FAD and three iron-sulfur clusters in place

**Q.** How did the “cyt c reduction/oxidation, 550 nm” value [2] turn out when `O=C(O)CC(=O)O` [malonate] was run?
**A.** NADH and succinate-dependent activities could be inhibited by CI inhibitor rotenone and CII inhibitor malonate

**Q.** How did the cryo-EM structure (NDUA9 (Tt-CI subunit)) turn out when `NC(=O)C1=CN([C@@H]2O[C@H](COP(=O)(O)OP(=O)(O)OC[C@H]3O[C@@H](n4cnc5c(N)ncnc54)[C@H](OP(=O)(O)O)[C@@H]3O)[C@@H](O)[C@H]2O)C=CC1` [NDP] was run?
**A.** NDP group of NDUA9 and the interfacial heme c SDHTT1
